Reference: patent US10632127B2, “Targeted notch pathway inhibitors” (Hoffmann-La Roche Inc., priority 2015, dated 2020)
Like-named read-outs stand apart in the source and are kept apart here.

How the values were obtained:
[1] = Pharmacokinetic assessment in male Wistar rats (i.v.); type: in vivo, rat
Experimental: For PK evaluation, the compounds were administered i.p to male C57BL/6 mice in suspension (gelatine/saline 7.5%/0.62% in water) using an administration volume of 4 mL/kg. Blood samples were collected in tubes containing EDTA, plasma was separated by centrifugation and stored at −80° C. Liver and kidney samples (˜100 mg aliquots) were homogenized in three volumes of water using Precellys tissue homogenization tubes (precellys.com). 25 μL of each tissue homogenate was further diluted with 25 μL blank plasma to produce the final tissue homogenate for extraction. All samples were analyzed using protein precipitation followed by LC-MS/MS analysis. Briefly, 50 μL plasma or final tissue homogenate were mixed with 50 μL 0.5M HClO4/acetonitrile 9/1 (containing 200 ng/mL internal standard bosentan). Samples were stirred and 300 μL water was added followed by centrifugation at 5600 rpm (4° C., 10 min). 10 μL supernatant was analyzed by LC/MS analysis. Calibration standards in plasma were prepared the same way. The LC column and conditions used were: Phenomenex, Polar RP, 4 μm, 50×2.1 mm at 0.4 mL/min flow rate with a 3 min gradient from 95% solvent A to 95% solvent B (Solvent A: Water/ACN/HCOOH, 90:10:0.1+10 mM NH4 formate; Solvent B: Water/ACN/HCOOH, 10:90:0.1+10 mM NH4 formate). Mass spectrometric conditions were: Thermo TSQ Vantage with positive heated electrospray ionization in MS/MS mode. Compounds mass transitions monitored were m/z 320.7 to 119.9. PK parameters for all studies were calculated using Phoenix WinNonlin Software.
We next determined the stability, tissue distribution and cleavage rate in plasma, liver and kidney of the designed prodrugs in male Wistar rats. In the in vivo screen, the kinetics and distribution of the prodrugs Ac-γ-Glu-SecrI (13a) and Ac-γ-Glu-O-SecrI (13c) were compared with the active γ-secretase inhibitor SecrI (8). After i.v. administration in male Wistar rats, the disappearance of the prodrugs and the formation of the active amine-SecrI (11a), amine-O-SecrI (11b) and SecrI (8) were compared in plasma, liver and kidney (Table 7A-C). First, we determined the pharmacokinetics (PK) behavior of SecrI (8) following i.v. administration (Table 7A). […] Liver and kidney exposure were much higher, with same exposure in liver and kidney. […] The selectivity towards kidney stayed constant over time. The carbonate analogue Ac-γ-Glu-O-SecrI (13c) prodrug was converted to a lower extent than the Ac-γ-Glu-SecrI (13a) to amine-O-SecrI (11b) but more to the linker free γ-secretase inhibitor 8 (Table 7C).
Plasma and tissue concentrations of administered compound (A-C) and formed amine-SecrI (11a), amine-O-SecrI (11b) or SecrI (8) (B-C) were determined following i.v. administration in rats (no standard deviation given due to sparse sampling; n≤3 rats per time point). Numbers in parentheses represent relative amounts with the exposure of kidney arbitrarily set at each time point to 100%. […] BQL=below quantifiable limit.

[2] = tested on: Notch1 and cleaved Notch1; experiment: Immunohistochemistry of Notch1 and cleaved Notch1 in kidneys of mice exposed to aristolochic acid; type: in vivo, mouse; conditions: for Notch1 and cleaved Notch1 in kidneys (immunohistochemistry): AA-exposed mice, 11a 10 mg/kg b.i.d. or 13a 30 mg/kg b.i.d. i.p., day 7, versus AA-treated mice without prodrug; for modification of Notch or cleaved Notch levels in the kidneys: healthy wild-type mice, compound injected alone (results not shown)
Experimental: FIG. 3. Expression of Notch1 and active cleaved Notch1 determined by immuno-histochemistry in kidneys of mice exposed to aristolochic acid (AA) and treated either with the amine-SecrI (11a) or with Ac-γ-Glu-SecrI (13a).
Sections (7 μm) of snap-frozen kidneys were exposed to an anti-γ-secretase-cleaved Notch (cNotch) antibody, followed by the […] staining. Immunostaining is visualized as dark precipitate.
All experiments with animals were conducted in accordance with federal and local regulation at the respective study location. Kidney injury was induced by intraperitoneal (i.p). injection of aristolochic acid (AA, Sigma-Aldrich, 1×5 mg/kg) in 10 weeks old BALB/c male mice. The γ-secretase inhibitors prodrugs were diluted in NaCl 0.9% and administered i.p., starting one day before the injection of AA (day −1) and then twice daily until day 6 evening (n=5 mice/experimental group). At day 7 morning (12 h after the last prodrug injection), blood was collected and the mice were sacrificed to remove the liver and both kidneys. The kidneys were cut in four fragments. One fragment was immediately frozen in liquid nitrogen, one fragment was included in OCT (Tissue-Tek, VWR International, Switzerland) and frozen, one fragment was frozen at −80° C. and one fragment was fixed in 4% paraformaldehyde and included in paraffin.
OCT-embedded frozen kidneys were cut at 7 μm. The sections were air dried, fixed for 10 min in cold (−20° C.). methanol, rinsed in PBS 0.1% Triton x-100 (PBS/Triton), and blocked for 30 min with PBS/Triton containing 5% bovine serum albumin (BSA). The rabbit anti-Notch1 antibody (D1E11, diluted 1/50) and the rabbit anti-cleaved Notch1 antibody (Val1744, diluted 1/50) were purchased from Cell Signaling, the biotinylated anti-rabbit antibody from Vector Laboratories (diluted 1/500) and streptavidin/HRP (diluted 1/500) from Dako. The primary antibodies were diluted in PBS containing 5% BSA and were incubated with the sections for 1 h at RT. Endogenous peroxidase and biotin were blocked using 3% H2O2 and Avidin/Biotin blocking kit (Vector Laboratories), respectively. The slides were rinsed with PBS/Triton three times and incubated for 1 h at RT with anti-rabbit biotin secondary antibody diluted in the same buffer as for primary antibodies. After three washes with PBS, slides were incubated with streptavidin/HRP antibody for 1 h at RT, then 3,3′diaminobenzidine (DAB, Dako) was added for 15 min. The slides were washed in distilled water, mounted in Aquamount and analyzed.
To investigate potential nephroprotective effects of Notch blockade using γ-secretase inhibition and to evaluate the effects of our enzyme-targeted prodrug strategy, we used the in vivo AA mouse model of acute renal tubular damage. […]

SMILES: C[C@H]1Oc2ccc(F)cc2N(CCO)C(=O)[C@H]1NC(=O)[C@@](C)(O)C(=O)NCC(F)(F)C(F)(F)F [Compound 8, N-[(6R,7S)-2-Fluoro-9-(2-hydroxy-ethyl)-6-methyl-8-oxo-6,7,8,9-tetrahydro-5-oxa-9-aza-benzocyclohepten-7-yl]-2-(S)-hydroxy-2-methyl-N′-(2,2,3,3,3-pentafluoro-propyl)-malonamide]
- 8 in kidney, relative amount (arbitrarily set to 100%) ([1]; 8 3.5 mg/kg i.v., 0.25 h): (100) %
- 8 in liver, relative amount (kidney = 100%) ([1]; 8 3.5 mg/kg i.v., 0.25 h): (93) %
- 8 in kidney, relative amount (arbitrarily set to 100%) ([1]; 8 3.5 mg/kg i.v., 1.25 h): (100) %
- 8 in liver, relative amount (kidney = 100%) ([1]; 8 3.5 mg/kg i.v., 1.25 h): (101) %
- 8 in kidney, relative amount (arbitrarily set to 100%) ([1]; 8 3.5 mg/kg i.v., 2.2 h): (100) %
- 8 in liver, relative amount (kidney = 100%) ([1]; 8 3.5 mg/kg i.v., 2.2 h): (133) %
- 8 in kidney, relative amount (arbitrarily set to 100%) ([1]; 8 3.5 mg/kg i.v., 7 h): (100) %
- 8 in liver, relative amount (kidney = 100%) ([1]; 8 3.5 mg/kg i.v., 7 h): (126) %
- Plasma concentration of formed 8 ([1]; 13c 1.5 mg/kg i.v., 4 h): BQL
- Formed 8 in kidney, relative amount (arbitrarily set to 100%) ([1]; 13c 1.5 mg/kg i.v., 7 h): (100) %
- Formed 8 in liver, relative amount (kidney = 100%) ([1]; 13c 1.5 mg/kg i.v., 7 h): (43) %
- Plasma concentration of formed 8 ([1]; 13c 1.5 mg/kg i.v., 7 h): BQL
- kidney selectivity, in words ([1]; formed after 13c i.v.): only a moderate kidney selectivity
- plasma clearance, in words ([1]; i.v.): rapid plasma clearance
- plasma exposure, in words ([1]; i.v.): good plasma exposure
- concentration at 0.25 h ([1]; rat, kidney, iv, 8 3.5 mg/kg i.v., 0.25 h, read-out: Kidney concentration of 8): 3320 ng/g
- concentration at 1.25 h ([1]; rat, kidney, iv, 8 3.5 mg/kg i.v., 1.25 h, read-out: Kidney concentration of 8): 844 ng/g
- concentration at 2.2 h ([1]; rat, kidney, iv, 8 3.5 mg/kg i.v., 2.2 h, read-out: Kidney concentration of 8): 225 ng/g
- concentration at 7 h ([1]; rat, kidney, iv, 8 3.5 mg/kg i.v., 7 h, read-out: Kidney concentration of 8): 92.4 ng/g
- concentration at 0.25 h ([1]; rat, liver, iv, 8 3.5 mg/kg i.v., 0.25 h, read-out: Liver concentration of 8): 3100 ng/g
- concentration at 1.25 h ([1]; rat, liver, iv, 8 3.5 mg/kg i.v., 1.25 h, read-out: Liver concentration of 8): 852 ng/g
- concentration at 2.2 h ([1]; rat, liver, iv, 8 3.5 mg/kg i.v., 2.2 h, read-out: Liver concentration of 8): 298 ng/g
- concentration at 7 h ([1]; rat, liver, iv, 8 3.5 mg/kg i.v., 7 h, read-out: Liver concentration of 8): 116 ng/g
- concentration at 0.25 h ([1]; rat, plasma, iv, 8 3.5 mg/kg i.v., 0.25 h, read-out: Plasma concentration of 8): 964 ng/mL
- concentration at 1.25 h ([1]; rat, plasma, iv, 8 3.5 mg/kg i.v., 1.25 h, read-out: Plasma concentration of 8): 198 ng/mL
- concentration at 2.2 h ([1]; rat, plasma, iv, 8 3.5 mg/kg i.v., 2.2 h, read-out: Plasma concentration of 8): 39.7 ng/mL
- concentration at 7 h ([1]; rat, plasma, iv, 8 3.5 mg/kg i.v., 7 h, read-out: Plasma concentration of 8): 18.4 ng/mL

SMILES: C[C@H]1Oc2ccc(F)cc2N(CCOC(=O)NCCN)C(=O)[C@H]1NC(=O)[C@@](C)(O)C(=O)NCC(F)(F)C(F)(F)F.Cl [Compound 11a, 2-((2R,3S)-7-Fluoro-3-((S)-2-hydroxy-2-methyl-3-oxo-3-(2,2,3,3,3-pentafluoropropylamino)propanamido)-2-methyl-4-oxo-3,4-dihydrobenzo[b][1,4]oxazepin-5(2H)-yl)ethyl 2-aminoethylcarbamate hydrochloride]
- Plasma concentration of formed 11a ([1]; 13a 1.6 mg/kg i.v., 0.25 h): BQL
- Plasma concentration of formed 11a ([1]; 13a 1.6 mg/kg i.v., 0.5 h): BQL
- Plasma concentration of formed 11a ([1]; 13a 1.6 mg/kg i.v., 4 h): BQL
- Liver concentration of formed 11a ([1]; 13a 1.6 mg/kg i.v., 7 h): BQL
- Plasma concentration of formed 11a ([1]; 13a 1.6 mg/kg i.v., 7 h): BQL
- Notch1 and cleaved Notch1 in kidneys (immunohistochemistry) [2]: reduced
- modification of Notch or cleaved Notch levels in the kidneys [2]: Neither (11a) nor (13a) injected alone induced any modification

SMILES: CC(=O)N[C@@H](CCC(=O)NCCNC(=O)OCCN1C(=O)[C@@H](NC(=O)[C@@](C)(O)C(=O)NCC(F)(F)C(F)(F)F)[C@@H](C)Oc2ccc(F)cc21)C(=O)O [Compound 13a, (S)-2-acetamido-5-(2-((2-((2R,3S)-7-fluoro-3-((S)-2-hydroxy-2-methyl-3-oxo-3-(2,2,3,3,3-pentafluoropropylamino)propanamido)-2-methyl-4-oxo-3,4-dihydrobenzo[b][1,4]oxazepin-5(2H)-yl)ethoxy)carbonylamino)ethylamino)-5-oxopentanoic acid]
- Liver concentration of 13a ([1]; 13a 1.6 mg/kg i.v., 4 h): BQL
- Plasma concentration of 13a ([1]; 13a 1.6 mg/kg i.v., 4 h): BQL
- Kidney concentration of 13a ([1]; 13a 1.6 mg/kg i.v., 7 h): BQL
- Liver concentration of 13a ([1]; 13a 1.6 mg/kg i.v., 7 h): BQL
- Plasma concentration of 13a ([1]; 13a 1.6 mg/kg i.v., 7 h): BQL
- conversion to amine-SecrI (11a), in words ([1]; 13a i.v., 0.25 h): high conversion
- conversion to the linker-free γ-secretase inhibitor 8, in words ([1]; i.v.): never observed significant amounts
- plasma exposure, in words ([1]; i.v.): low plasma exposure
- stability in plasma, in words ([1]; i.v.): good stability in plasma
- concentration at 0.25 h ([1]; rat, kidney, iv, 13a 1.6 mg/kg i.v., 0.25 h, read-out: Kidney concentration of 13a): 188 ng/g
- concentration at 0.5 h ([1]; rat, kidney, iv, 13a 1.6 mg/kg i.v., 0.5 h, read-out: Kidney concentration of 13a): 12.7 ng/g
- concentration at 4 h ([1]; rat, kidney, iv, 13a 1.6 mg/kg i.v., 4 h): 16.6 ng/g
- concentration at 0.25 h ([1]; rat, liver, iv, 13a 1.6 mg/kg i.v., 0.25 h, read-out: Liver concentration of 13a): 400 ng/g
- concentration at 0.5 h ([1]; rat, liver, iv, 13a 1.6 mg/kg i.v., 0.5 h, read-out: Liver concentration of 13a): 33.4 ng/g
- concentration at 0.25 h ([1]; rat, plasma, iv, 13a 1.6 mg/kg i.v., 0.25 h, read-out: Plasma concentration of 13a): 295 ng/mL
- concentration at 0.5 h ([1]; rat, plasma, iv, 13a 1.6 mg/kg i.v., 0.5 h, read-out: Plasma concentration of 13a): 11.2 ng/mL
- Notch1 and cleaved Notch1 in kidneys (immunohistochemistry) [2]: reduced
- modification of Notch or cleaved Notch levels in the kidneys [2]: Neither (11a) nor (13a) injected alone induced any modification
